The values that follow come from patent US20260274892A1, “MACROCYCLIC BROAD SPECTRUM ANTIBIOTICS” (RQx Pharmaceuticals, Inc., priority 2017, published 2026).

In assay [1] the test system is Methicillin Resistant Staphylococcus aureus strain USA 200. The experiment in a line: Minimum inhibitory concentration (MIC), CLSI broth micro-dilution, S. aureus. It is filed as cell-based. The settings on record: Staphylococcus aureus, MRSA / USA200; Table 6; MRSA USA 200; cation adjusted Mueller Hinton Broth + 0.002% Tween-80; 35° C., 22 hours. In short, it runs like this: (§1)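 Antibacterial potency is measured as MIC by the CLSI broth dilution method. Bacteria at OD600 0.0005 in Tween-80-supplemented cation-adjusted Mueller Hinton broth face ten twofold compound dilutions for 22 h at 35° C.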
On the technique in general: Broth dilution looks for growth in wells or tubes with falling amounts of substance.

Assay [2] deals with Escherichia coli ATCC 25922. The experiment in a line: Minimum inhibitory concentration (MIC), CLSI broth micro-dilution, E. coli. It is filed as cell-based. The settings on record: Escherichia coli, ATCC25922, 22 h, Table 6, cation adjusted Mueller Hinton Broth + 0.002% Tween-80, 35° C. In short, it runs like this:
as §1

As to `Cc1nc(-c2ccc(C3(C)COC3)cc2)ncc1C(=O)N[C@@H](CCN)C(=O)N(C)[C@@H]1C(=O)N[C@@H](C)C(=O)N[C@H](C(=O)NCC#N)Cc2ccc(OCCN)c(c2)-c2cc1ccc2OCCN` (racemic) [Compound 238, rac-(8S,11S,14S)-3,18-bis(2-aminoethoxy)-N-(cyanomethyl)-11-methyl-14-[methyl-[rac-(2S)-4-amino-2-[[4-methyl-2-[4-(3-methyloxetan-3-yl)phenyl]pyrimidine-5-carbonyl]amino]butanoyl]amino]-10,13-dioxo-9,12-diazatricyclo[13.3.1.12,6]icosa-1(18),2(20),3,5,15(19),16-hexaene-8-carboxamide], the MIC (usually the smallest concentration in the dilution series that meets the test's criterion for growth inhibition) was determined as 0.53 µM in assay [1] and 2.1 µM in assay [2].

Regarding `CCCCCCCc1ccc(C(=O)N[C@@H](CCN)C(=O)N(C)[C@@H]2C(=O)N[C@@H](CC)C(=O)N[C@H](C(=O)NCC#N)Cc3ccc(OCCN)c(c3)-c3cc2ccc3OCCN)c(C)c1` (racemic) [Compound 479, rac-(8S,11S,14S)-3,18-bis(2-aminoethoxy)-N-(cyanomethyl)-11-ethyl-14-[methyl-[rac-(2S)-4-amino-2-[(4-heptyl-2-methyl-benzoyl)amino]butanoyl]amino]-10,13-dioxo-9,12-diazatricyclo[13.3.1.12,6]icosa-1(18),2(20),3,5,15(19),16-hexaene-8-carboxamide], the MIC in assay [1] is 0.027 µM; in assay [2], 0.77 µM.

As to `C[C@@H]1NC(=O)[C@@H](N(C)C(=O)[C@H](CCN)NC(=O)c2ccc(-c3ccc(C(C)(C)C)cc3)cc2N)c2ccc(OCCN)c(c2)-c2cc(ccc2OCCN)C[C@@H](C(=O)NCC#N)NC1=O` (racemic) [Compound 372, rac-(8S,11S,14S)-3,18-bis(2-aminoethoxy)-N-(cyanomethyl)-11-methyl-14-[methyl-[rac-(2S)-4-amino-2-[[2-amino-4-(4-tert-butylphenyl)benzoyl]amino]butanoyl]amino]-10,13-dioxo-9,12-diazatricyclo[13.3.1.12,6]icosa-1(18),2(20),3,5,15(19),16-hexaene-8-carboxamide], the MIC in assay [1] is 0.023 µM; in assay [2], 0.38 µM.

In the case of `CCCCOc1ccc(-c2ncc(C(=O)N[C@@H](CCN)C(=O)N(C)[C@@H]3C(=O)N[C@@H](C)C(=O)N[C@H](C(=O)NCC#N)Cc4ccc(OCCN)c(c4)-c4cc3ccc4OCCN)c(C)n2)c(C)c1` (racemic) [Compound 242, rac-(8S,11S,14S)-3,18-bis(2-aminoethoxy)-N-(cyanomethyl)-11-methyl-14-[methyl-[rac-(2S)-4-amino-2-[[2-(4-butoxy-2-methyl-phenyl)-4-methyl-pyrimidine-5-carbonyl]amino]butanoyl]amino]-10,13-dioxo-9,12-diazatricyclo[13.3.1.12,6]icosa-1(18),2(20),3,5,15(19),16-hexaene-8-carboxamide], the minimal inhibitory concentration (MIC) in assay [1] worked out at 0.016 µM; in assay [2], 0.39 µM.

In the case of `CCCCCOc1ccc(-c2cc(C)c(C(=O)N[C@@H](CCN)C(=O)N(C)[C@@H]3C(=O)N[C@@H](C)C(=O)N[C@H](C(=O)NCC#N)Cc4ccc(OCCN)c(c4)-c4cc3ccc4OCCN)c(C)n2)cc1` (racemic) [Compound 362, rac-(8S,11S,14S)-3,18-bis(2-aminoethoxy)-N-(cyanomethyl)-11-methyl-14-[methyl-[rac-(2S)-4-amino-2-[[2,4-dimethyl-6-(4-pentoxyphenyl)pyridine-3-carbonyl]amino]butanoyl]amino]-10,13-dioxo-9,12-diazatricyclo[13.3.1.12,6]icosa-1(18),2(20),3,5,15(19),16-hexaene-8-carboxamide], the MIC in assay [1] came out at 0.063 µM; in assay [2] it was 0.25 µM.

For the molecule `CCCCCCc1ccc2cc(C(=O)N[C@@H](CCN)C(=O)N(C)[C@@H]3C(=O)N[C@@H](C)C(=O)N[C@H](C(=O)NCC#N)Cc4ccc(OCCN)c(c4)-c4cc3ccc4OCCN)c(C)nc2c1` (racemic) [Compound 394, rac-(8S,11S,14S)-3,18-bis(2-aminoethoxy)-N-(cyanomethyl)-11-methyl-14-[methyl-[rac-(2S)-4-amino-2-[(7-hexyl-2-methyl-quinoline-3-carbonyl)amino]butanoyl]amino]-10,13-dioxo-9,12-diazatricyclo[13.3.1.12,6]icosa-1(18),2(20),3,5,15(19),16-hexaene-8-carboxamide], the minimum inhibitory concentration (MIC) in assay [1] worked out at 0.0083 µM; in assay [2], 0.2 µM.

For the molecule `CCCCCCCCc1ccc(C(=O)N[C@@H](CCC(=O)NC2COC2)C(=O)N(C)[C@@H]2C(=O)N[C@@H](C)C(=O)N[C@H](C(=O)NCC#N)Cc3ccc(OCCN)c(c3)-c3cc2ccc3OCCN)c(C)c1` (racemic) [Compound 447, rac-(2S)-N-methyl-2-[(2-methyl-4-octyl-benzoyl)amino]-N′-(oxetan-3-yl)-N-[rac-(7S,10S,13S)-3,18-bis(2-aminoethoxy)-13-(cyanomethylcarbamoyl)-10-methyl-8,11-dioxo-9,12-diazatricyclo[13.3.1.12,6]icosa-1(19),2,4,6(20),15,17-hexaen-7-yl]pentanediamide], the MIC came out at 0.033 µM in assay [1] and 4.2 µM in assay [2].

Take `CCCCCc1ccc(-c2nc(C)c(C(=O)N[C@H](CCN)C(=O)N(C)[C@@H]3C(=O)N[C@@H](C)C(=O)N[C@H](C(=O)NCC#N)Cc4ccc(OCCN)c(c4)-c4cc3ccc4OCCN)o2)cc1` (racemic) [Compound 382, 4-methyl-2-(4-pentylphenyl)-N-[rac-(1R)-3-amino-1-[methyl-[rac-(7S,10S,13S)-3,18-bis(2-aminoethoxy)-13-(cyanomethylcarbamoyl)-10-methyl-8,11-dioxo-9,12-diazatricyclo[13.3.1.12,6]icosa-1(19),2,4,6(20),15,17-hexaen-7-yl]carbamoyl]propyl]oxazole-5-carboxamide]: the MIC is 0.4 µM in assay [1] and 4.3 µM in assay [2].

As to `CCCCC1(Oc2ccc(-c3nc(C)c(C(=O)N[C@@H](CCN)C(=O)N(C)[C@@H]4C(=O)N[C@@H](C)C(=O)N[C@H](C(=O)NCC#N)Cc5ccc(OCCN)c(c5)-c5cc4ccc5OCCN)c(C)n3)cc2)CC1` (racemic) [Compound 347, rac-(8S,11S,14S)-3,18-bis(2-aminoethoxy)-N-(cyanomethyl)-11-methyl-14-[methyl-[rac-(2S)-4-amino-2-[[2-[4-(1-butylcyclopropoxy)phenyl]-4,6-dimethyl-pyrimidine-5-carbonyl]amino]butanoyl]amino]-10,13-dioxo-9,12-diazatricyclo[13.3.1.12,6]icosa-1(18),2(20),3,5,15(19),16-hexaene-8-carboxamide], the minimal inhibitory concentration (MIC) in assay [1] worked out at 0.047 µM; in assay [2], 0.25 µM.

As to `Cc1nc(-c2ccc(OC(C)(C)C)cc2)ncc1C(=O)N[C@@H](CCN)C(=O)N(C)[C@@H]1C(=O)N[C@@H](C)C(=O)N[C@H](C(=O)NCC#N)Cc2ccc(OCCN)c(c2)-c2cc1ccc2OCCN` (racemic) [Compound 250, rac-(8S,11S,14S)-3,18-bis(2-aminoethoxy)-N-(cyanomethyl)-11-methyl-14-[methyl-[rac-(2S)-4-amino-2-[[2-(4-tert-butoxyphenyl)-4-methyl-pyrimidine-5-carbonyl]amino]butanoyl]amino]-10,13-dioxo-9,12-diazatricyclo[13.3.1.12,6]icosa-1(18),2(20),3,5,15(19),16-hexaene-8-carboxamide], the MIC is 0.066 µM in assay [1] and 0.35 µM in assay [2].

Consider `Cc1nc(-c2ccc(OC3CCCCC3)cc2)nc(C)c1C(=O)N[C@@H](CCN)C(=O)N(C)[C@@H]1C(=O)N[C@@H](C)C(=O)N[C@H](C(=O)NCC#N)Cc2ccc(OCCN)c(c2)-c2cc1ccc2OCCN` (racemic) [Compound 337, rac-(8S,11S,14S)-3,18-bis(2-aminoethoxy)-N-(cyanomethyl)-11-methyl-14-[methyl-[rac-(2S)-4-amino-2-[[2-[4-(cyclohexoxy)phenyl]-4,6-dimethyl-pyrimidine-5-carbonyl]amino]butanoyl]amino]-10,13-dioxo-9,12-diazatricyclo[13.3.1.12,6]icosa-1(18),2(20),3,5,15(19),16-hexaene-8-carboxamide], for which the minimal inhibitory concentration (MIC) in assay [1] amounted to 0.012 µM; in assay [2], 0.11 µM.

As to `Cc1nc(-c2ccc(C(C)(C)C)cc2)ncc1C(=O)N[C@@H](CCN)C(=O)N(C)[C@@H]1C(=O)N[C@@H](C)C(=O)N[C@H](C(=O)NCC#N)Cc2ccc(O)c(c2)-c2cc1ccc2O` (racemic) [Compound 431, rac-(8S,11S,14S)-N-(cyanomethyl)-3,18-dihydroxy-11-methyl-14-[methyl-[rac-(2S)-4-amino-2-[[2-(4-tert-butylphenyl)-4-methyl-pyrimidine-5-carbonyl]amino]butanoyl]amino]-10,13-dioxo-9,12-diazatricyclo[13.3.1.12,6]icosa-1(18),2(20),3,5,15(19),16-hexaene-8-carboxamide], the figures for the minimal inhibitory concentration (MIC) in assay [1] and in assay [2] were 0.18 µM and 3.9 µM, respectively.

For `CCC(CC)Oc1ccc(-c2nc(C)c(C(=O)N[C@@H](CCN)C(=O)N(C)[C@@H]3C(=O)N[C@@H](C)C(=O)N[C@H](C(=O)NCC#N)Cc4ccc(OCCN)c(c4)-c4cc3ccc4OCCN)c(C)n2)cc1` (racemic) [Compound 339, rac-(8S,11S,14S)-3,18-bis(2-aminoethoxy)-N-(cyanomethyl)-11-methyl-14-[methyl-[rac-(2S)-4-amino-2-[[2-[4-(1-ethylpropoxy)phenyl]-4,6-dimethyl-pyrimidine-5-carbonyl]amino]butanoyl]amino]-10,13-dioxo-9,12-diazatricyclo[13.3.1.12,6]icosa-1(18),2(20),3,5,15(19),16-hexaene-8-carboxamide], the minimal inhibitory concentration (MIC) turned out to be 0.047 µM in assay [1] and 0.25 µM in assay [2].
